Each block holds one compound with its values, some of them ahead of it.
Experiments:
[1] = target: Tyrosine-protein kinase ABL1 (Homo sapiens, UniProt P00519); test: Selectivity interaction (KiNativ profiling (A375 live cells treatment assays)) EUB0000238b ABL1; conditions: at 1 µM
[2] = target: Tyrosine-protein kinase ABL2 (Homo sapiens) (UniProt P42684); test: Selectivity interaction (KiNativ profiling (A375 live cells treatment assays)) EUB0000238b ABL2; conditions: at 1 µM
[3] = test system: Receptor-type tyrosine-protein kinase FLT3 (Homo sapiens), P36888 [K663Q]; test: Selectivity interaction (KinomeScan (DiscoverX)) EUB0000274bCl FLT3; conditions: at 1 µM
[4] = target: Ribosomal protein S6 kinase beta-1 (Homo sapiens) (UniProt P23443); test: Selectivity interaction (KinomeScan (DiscoverX)) EUB0000274bCl RPS6KB1; conditions: at 1 µM
Sequence of Ribosomal protein S6 kinase beta-1 (Homo sapiens) (P23443 whole entry, looked up): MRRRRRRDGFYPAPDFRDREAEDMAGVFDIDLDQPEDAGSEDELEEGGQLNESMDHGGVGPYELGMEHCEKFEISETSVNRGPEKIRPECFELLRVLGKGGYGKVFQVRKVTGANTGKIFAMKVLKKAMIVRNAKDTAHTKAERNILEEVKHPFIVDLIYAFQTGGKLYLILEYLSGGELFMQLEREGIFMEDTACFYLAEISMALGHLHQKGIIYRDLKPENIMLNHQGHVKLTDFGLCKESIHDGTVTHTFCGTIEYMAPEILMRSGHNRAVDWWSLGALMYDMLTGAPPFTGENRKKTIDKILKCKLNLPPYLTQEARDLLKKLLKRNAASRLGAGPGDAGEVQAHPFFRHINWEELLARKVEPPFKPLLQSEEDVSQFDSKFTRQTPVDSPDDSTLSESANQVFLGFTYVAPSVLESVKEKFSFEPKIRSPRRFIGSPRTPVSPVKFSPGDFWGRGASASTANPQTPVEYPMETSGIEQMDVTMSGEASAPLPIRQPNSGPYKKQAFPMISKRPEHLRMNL

[5] = target: Calcium/calmodulin-dependent protein kinase kinase 1 (Homo sapiens) (UniProt Q8N5S9); test: Selectivity interaction (KinomeScan (DiscoverX)) EUB0000167b CAMKK1; conditions: at 1 µM
Sequence of Calcium/calmodulin-dependent protein kinase kinase 1 (Homo sapiens) (Q8N5S9 whole entry, looked up): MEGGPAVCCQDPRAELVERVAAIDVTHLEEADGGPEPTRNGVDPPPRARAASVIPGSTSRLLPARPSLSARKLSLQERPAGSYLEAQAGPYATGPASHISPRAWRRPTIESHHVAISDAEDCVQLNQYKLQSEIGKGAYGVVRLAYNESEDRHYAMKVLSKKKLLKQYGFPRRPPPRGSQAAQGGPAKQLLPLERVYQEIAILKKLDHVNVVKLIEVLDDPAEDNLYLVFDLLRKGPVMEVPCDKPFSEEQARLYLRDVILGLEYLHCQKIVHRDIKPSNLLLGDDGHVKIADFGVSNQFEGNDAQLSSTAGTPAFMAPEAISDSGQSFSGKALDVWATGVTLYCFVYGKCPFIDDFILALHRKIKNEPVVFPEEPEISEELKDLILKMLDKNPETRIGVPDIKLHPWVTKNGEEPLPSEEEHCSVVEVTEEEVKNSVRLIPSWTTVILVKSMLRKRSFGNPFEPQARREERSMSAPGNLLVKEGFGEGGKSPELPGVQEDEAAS

[6] = target: Dual specificity tyrosine-phosphorylation-regulated kinase 1A (Homo sapiens, UniProt Q13627); test: Selectivity interaction (KinomeScan (DiscoverX)) EUB0000313b DYRK1A; conditions: at 1 µM
[7] = target: Dual specificity tyrosine-phosphorylation-regulated kinase 1B (Homo sapiens, UniProt Q9Y463); test: Selectivity interaction (KinomeScan (DiscoverX)) EUB0000313b DYRK1B; conditions: at 1 µM
Sequence of Dual specificity tyrosine-phosphorylation-regulated kinase 1B (Q9Y463 whole entry, looked up): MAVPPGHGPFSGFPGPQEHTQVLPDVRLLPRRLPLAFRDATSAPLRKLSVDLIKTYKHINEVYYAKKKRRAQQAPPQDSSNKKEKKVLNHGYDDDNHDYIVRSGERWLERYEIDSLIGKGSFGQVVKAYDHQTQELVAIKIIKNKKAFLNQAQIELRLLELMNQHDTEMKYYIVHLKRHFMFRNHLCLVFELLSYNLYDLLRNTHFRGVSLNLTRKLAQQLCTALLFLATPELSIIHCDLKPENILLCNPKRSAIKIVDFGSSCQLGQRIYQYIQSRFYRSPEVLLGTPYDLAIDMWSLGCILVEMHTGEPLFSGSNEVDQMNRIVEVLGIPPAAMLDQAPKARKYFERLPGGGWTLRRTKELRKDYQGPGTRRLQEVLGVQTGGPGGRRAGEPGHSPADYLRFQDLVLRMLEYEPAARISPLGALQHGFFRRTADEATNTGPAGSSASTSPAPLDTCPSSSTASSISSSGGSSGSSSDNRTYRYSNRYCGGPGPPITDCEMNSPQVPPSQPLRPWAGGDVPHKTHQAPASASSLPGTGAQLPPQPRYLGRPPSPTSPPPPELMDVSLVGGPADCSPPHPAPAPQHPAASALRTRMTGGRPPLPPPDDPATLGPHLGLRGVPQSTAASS

[8] = target: Ribosomal protein S6 kinase alpha-5 (Homo sapiens) (UniProt O75582); test: Selectivity interaction (KinomeScan (DiscoverX)) EUB0000722a RPS6KA5; conditions: at 1 µM
Sequence of Ribosomal protein S6 kinase alpha-5 (Homo sapiens) (O75582 whole entry, looked up): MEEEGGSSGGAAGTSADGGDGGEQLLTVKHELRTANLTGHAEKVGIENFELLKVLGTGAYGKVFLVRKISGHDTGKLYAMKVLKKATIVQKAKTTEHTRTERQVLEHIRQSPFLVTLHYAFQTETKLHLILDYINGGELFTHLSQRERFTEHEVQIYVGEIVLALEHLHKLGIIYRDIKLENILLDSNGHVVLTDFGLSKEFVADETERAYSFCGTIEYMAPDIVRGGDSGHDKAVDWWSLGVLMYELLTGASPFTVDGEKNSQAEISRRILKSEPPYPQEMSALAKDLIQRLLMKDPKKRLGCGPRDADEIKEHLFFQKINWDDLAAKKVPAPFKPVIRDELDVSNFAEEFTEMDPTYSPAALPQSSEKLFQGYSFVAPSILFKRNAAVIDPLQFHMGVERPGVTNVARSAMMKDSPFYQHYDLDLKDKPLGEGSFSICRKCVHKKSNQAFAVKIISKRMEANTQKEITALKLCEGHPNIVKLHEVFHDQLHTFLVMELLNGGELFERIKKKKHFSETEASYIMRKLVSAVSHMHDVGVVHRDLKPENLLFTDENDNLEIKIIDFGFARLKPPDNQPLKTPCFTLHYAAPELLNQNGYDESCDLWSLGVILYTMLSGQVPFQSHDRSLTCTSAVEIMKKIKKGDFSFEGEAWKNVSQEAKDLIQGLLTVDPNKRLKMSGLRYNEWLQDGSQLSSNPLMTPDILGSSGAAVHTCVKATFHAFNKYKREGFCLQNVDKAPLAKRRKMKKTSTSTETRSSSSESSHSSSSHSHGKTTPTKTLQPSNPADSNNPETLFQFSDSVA

[9] = target: Epidermal growth factor receptor (Homo sapiens, UniProt P00533); test: Selectivity interaction (KinomeScan (DiscoverX)) EUB0000722a EGFR; conditions: at 1 µM
[10] = test system: Receptor-type tyrosine-protein kinase FLT3 (Homo sapiens), P36888 [K663Q]; test: Selectivity interaction (KinomeScan (DiscoverX)) EUB0000344a FLT3; conditions: at 1 µM
[11] = target: Ribosomal protein S6 kinase beta-1 (Homo sapiens) (UniProt P23443); test: Selectivity interaction (KinomeScan (DiscoverX)) EUB0000344a RPS6KB1; conditions: at 1 µM
[12] = target: Kappa-type opioid receptor (Homo sapiens, UniProt P41145); test: Selectivity interaction (GPCR panel (PDSP screen)) EUB0000344a OPRK1; conditions: at 10 µM
Sequence of Kappa-type opioid receptor (P41145 whole entry): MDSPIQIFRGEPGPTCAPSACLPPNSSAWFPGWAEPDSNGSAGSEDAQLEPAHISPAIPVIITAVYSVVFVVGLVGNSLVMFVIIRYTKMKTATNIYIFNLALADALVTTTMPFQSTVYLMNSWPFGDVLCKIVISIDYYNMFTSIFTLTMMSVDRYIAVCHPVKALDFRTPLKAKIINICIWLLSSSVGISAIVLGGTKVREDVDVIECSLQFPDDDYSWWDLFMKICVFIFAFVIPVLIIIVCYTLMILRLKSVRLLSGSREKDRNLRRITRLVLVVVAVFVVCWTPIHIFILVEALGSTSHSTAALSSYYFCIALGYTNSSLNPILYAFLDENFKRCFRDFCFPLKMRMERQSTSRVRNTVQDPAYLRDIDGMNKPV

Sequence of Tyrosine-protein kinase ABL2 (Homo sapiens) (P42684 whole entry): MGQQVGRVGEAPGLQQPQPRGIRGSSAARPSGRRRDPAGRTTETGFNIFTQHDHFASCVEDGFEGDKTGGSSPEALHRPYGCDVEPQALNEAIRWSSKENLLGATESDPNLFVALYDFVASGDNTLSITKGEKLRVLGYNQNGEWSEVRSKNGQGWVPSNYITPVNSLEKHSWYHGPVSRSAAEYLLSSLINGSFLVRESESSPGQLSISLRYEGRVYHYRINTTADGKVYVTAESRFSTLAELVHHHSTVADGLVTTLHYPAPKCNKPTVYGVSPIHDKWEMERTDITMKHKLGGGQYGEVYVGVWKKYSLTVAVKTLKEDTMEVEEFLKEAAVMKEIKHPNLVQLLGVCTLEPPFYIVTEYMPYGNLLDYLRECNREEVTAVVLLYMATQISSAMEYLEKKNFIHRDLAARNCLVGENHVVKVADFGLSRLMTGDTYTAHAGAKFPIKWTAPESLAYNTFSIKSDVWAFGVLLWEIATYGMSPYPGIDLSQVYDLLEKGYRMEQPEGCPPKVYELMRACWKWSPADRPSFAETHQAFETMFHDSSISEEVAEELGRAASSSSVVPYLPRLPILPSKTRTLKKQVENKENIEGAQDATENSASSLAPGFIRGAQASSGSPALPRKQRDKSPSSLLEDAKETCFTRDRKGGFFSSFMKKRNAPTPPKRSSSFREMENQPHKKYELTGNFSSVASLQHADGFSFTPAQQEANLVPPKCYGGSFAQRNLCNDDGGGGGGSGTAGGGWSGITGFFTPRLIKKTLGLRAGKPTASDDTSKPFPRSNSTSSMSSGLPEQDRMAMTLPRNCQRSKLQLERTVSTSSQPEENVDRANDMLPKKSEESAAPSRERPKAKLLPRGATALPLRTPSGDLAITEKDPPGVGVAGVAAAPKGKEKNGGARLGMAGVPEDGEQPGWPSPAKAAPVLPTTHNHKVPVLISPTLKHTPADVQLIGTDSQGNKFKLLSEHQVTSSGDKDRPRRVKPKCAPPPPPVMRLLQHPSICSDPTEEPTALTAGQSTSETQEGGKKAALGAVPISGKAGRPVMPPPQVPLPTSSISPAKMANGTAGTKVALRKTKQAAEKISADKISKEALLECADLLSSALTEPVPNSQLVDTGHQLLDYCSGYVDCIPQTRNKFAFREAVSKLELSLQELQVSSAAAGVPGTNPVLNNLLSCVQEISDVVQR

- % of control [3]: 30%
- % of control [4]: 34%
SMILES: O=C(O)c1cc(-c2ccc(C3CCNCC3)cc2)c2ccc(-c3ccc(C(F)(F)F)cc3)cc2c1

- % of control [5]: 12%
SMILES: Cc1cccc(-c2cnc3occ(-c4ccc(C(=O)O)c(C5CCCC5)c4)c3c2)c1

- % of control [10]: 30%
- % of control [11]: 34%
- % of inhibition [12]: 46.8%
SMILES: N#CC1(c2ccccn2)CCN(Cc2cc(C(=O)N3CCCC3)c(=O)n3ccccc23)CC1

The remaining lines, values behind:

SMILES: CNc1cc(Oc2cc(C(=O)Nc3cc(N4CCN(C)CC4)cc(C(F)(F)F)c3)ccc2C)ncn1
- % of inhibition [1]: 49%
- % of inhibition [2]: 49%

SMILES: CC(C)(O)c1cncc(-c2nc3ccc(F)cc3n2C2CC2)c1
- % of control [6]: 48%
- % of control [7]: 44%

SMILES: CCN(Cc1ccc(Cl)cc1)c1ncc(C(=O)NCCCN2CCCC2=O)c(NC2CCCC2)n1
- % of control [8]: 35%
- % of control [9]: 27%

Source: ChEMBL document CHEMBL5212743, “Selectivity Literature for EUbOPEN Chemogenomics Library wave 3” (2023)
